Measurements published in patent US11479802B2, “Assays for screening activity of modulators of members of the hydroxy steroid (17-beta) dehydrogenase (HSD17B) family” (Regeneron Pharmaceuticals, Inc., priority 2017, dated 2022).
Structures can show the parent of a compound that is named as a salt.

Target: T1, human HSD17B13 (Homo sapiens, UniProt Q7Z5P4)
T1 sequence (Q7Z5P4 20-300): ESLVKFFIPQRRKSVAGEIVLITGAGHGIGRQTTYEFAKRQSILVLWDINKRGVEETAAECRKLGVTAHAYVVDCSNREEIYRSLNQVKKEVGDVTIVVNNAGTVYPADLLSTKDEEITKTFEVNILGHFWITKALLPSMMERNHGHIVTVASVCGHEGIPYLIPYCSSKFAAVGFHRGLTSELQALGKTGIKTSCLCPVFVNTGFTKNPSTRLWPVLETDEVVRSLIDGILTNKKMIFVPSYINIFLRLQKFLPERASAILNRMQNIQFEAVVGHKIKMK
Assay: Substrate screening of steroid and bioactive lipid libraries against purified recombinant HSD17B13 (NADH-linked luciferase assay)
Format: biochemical
Details: for HSD17B13 Enzymatic Activity Relative Light Units: 500 μM NAD+, 100 ng enzyme, 3 hours at 23° C.; for HSD17B13 Enzymatic Activity Percent Estradiol Control: normalized to 50 μM estradiol after subtraction of 5% DMSO
Outline: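 Recombinant human HSD17B13 (100 ng) incubated 3 h at 23° C in 0.2 M Tris-HCl pH 7.5 with 500 μM NAD+ and 5 μM bioactive lipid or 50 μM steroid (5% DMSO). NADH measured by luciferase luminescence after 1 h; values as percent of 50 μM estradiol control after 5% DMSO subtraction.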

[1] = Bioactive Lipid Library, 5 μM bioactive lipid (Estradiol Control 50 μM)
[2] = Bioactive Lipid Library, 5 μM bioactive lipid

| Molecule | HSD17B13 Enzymatic Activity Relative Light Units [1] | HSD17B13 Enzymatic Activity Percent Estradiol Control [2] | HSD17B13 Enzymatic Activity Relative Light Units (Steroid Library, 50 μM steroid) | HSD17B13 Enzymatic Activity Percent Estradiol Control (Steroid Library, 50 μM steroid) |
| --- | --- | --- | --- | --- |
| O=P([O-])(O)O[C@@H]1C(O)[C@H](OP(=O)([O-])O)[C@H](O)C(O)[C@H]1O.[Na+].[Na+] (stereo partly drawn) [D-myo-Inositol-1,5-diphosphate (sodium salt)] | 443840 RLU | 8.97% | – | – |
| Ptdlns-(4,5)-P2 (1,2-dioctanoyl) (sodium salt) | 348680 RLU | 1.79% | – | – |
| CCCCC/C=C\C\C=C/C=C/C=C/[C@@H]1O[C@H]1CCCC(=O)OC [Leukotriene A4 methyl ester] | 463120 RLU | 14.23% | – | – |
| C[C@]12CCC(=O)C[C@@H]1CC[C@@H]1[C@@H]2C(=O)C[C@]2(C)C(=O)CC[C@@H]12 [5alpha-Androstane-3,11,17-trione] | – | – | 228280 RLU | 1.18% |
| CCCCC/C=C\C[C@H](O)/C=C/C=C\CCC(=O)O [tetranor-12(S)-HETE] | 379280 RLU | 4.10% | – | – |
| CCCCC/C=C\C[C@@H](/C=C/C=C\C/C=C\CCCC(=O)O)OO [12(S)-HpETE] | 199760 RLU | −6.47% | – | – |
| O=c1cc(-c2ccc(O)cc2)oc2cc(O)cc(O)c12 [Apigenin] | – | – | 24440 RLU | −2.38% |
| O=P(O)(O)OC1[C@H](O)[C@H](OP(=O)(O)O)C(OP(=O)(O)O)[C@H](OP(=O)(O)O)[C@H]1O (stereo partly drawn) [D-myo-Inositol-1,3,4,5-tetraphosphate (sodium salt)] | 358920 RLU | 2.56% | – | – |
| CC/C=C\C/C=C\C/C=C\C/C=C\CC(O)/C=C/C=C\CCC(=O)O (racemic) [(±)8-HDHA] | 773120 RLU | 36.16% | – | – |
| O=C(O)CCC[C@H](O)\C=C/C=C/C=C/[C@H](O)C/C=C\CCCCCO [20-hydroxy Leukotriene B4] | 654120 RLU | 29.33% | – | – |
| CC/C=C\C/C=C\C=C\C(O)C/C=C\C/C=C\C/C=C\CCC(=O)O (racemic) [(±)13-HDHA] | 1154720 RLU | 64.54% | – | – |
| C[C@]12CC[C@H](O)C[C@@H]1CC[C@@H]1[C@@H]2CC[C@]2(C)C(=O)CC[C@@H]12 [Epiandrosterone] | – | – | 185800 RLU | 0.44% |
| C[C@@H](O)CCC[C@@H](O)/C=C/[C@H]1[C@H](O)CC(=O)[C@@H]1CCCCCCC(=O)O [15(R),19(R)-hydroxy Prostaglandin E1] | 333200 RLU | 3.96% | – | – |
| CC/C=C\C/C=C\C/C=C\C/C=C\C=C\[C@@H](O)CCCC(=O)O [5(S)-HEPE] | 429120 RLU | 10.58% | – | – |
| CC/C=C\C[C@H]1C(=O)C=C[C@@H]1CCCCCCCC(=O)O [13-epi-12-oxo Phytodienoic Acid] | 320640 RLU | 2.97% | – | – |
| CC/C=C\C[C@H](O)/C=C/[C@@H]1[C@H](C/C=C\CCCC(=O)O)[C@@H](O)C[C@H]1O [8-iso Prostaglandin F3α] | 361040 RLU | 6.16% | – | – |
| CCCCC[C@H](O)/C=C/[C@@H]1[C@@H](C/C=C\CCCC(=O)O)[C@@H]2C[C@H]1OO2 [Prostaglandin H2] | 166640 RLU | −9.20% | – | – |

| Molecule | HSD17B13 Enzymatic Activity Relative Light Units [1] | HSD17B13 Enzymatic Activity Percent Estradiol Control [2] | HSD17B13 Enzymatic Activity Relative Light Units (Steroid Library, 50 μM steroid) | HSD17B13 Enzymatic Activity Percent Estradiol Control (Steroid Library, 50 μM steroid) |
| --- | --- | --- | --- | --- |
| C[C@]12CC[C@@H](O)C[C@@H]1CC[C@@H]1[C@@H]2[C@@H](O)C[C@]2(C)C(=O)CC[C@@H]12 [11beta-Hydroxyandrosterone] | – | – | 224720 RLU | 1.12% |
| CCCCCCCC[C@@H](O)C=CC=CC=C[C@@H](O)CCCC(=O)O [12-epi Leukotriene B3] | 481880 RLU | 15.71% | – | – |
| CCCCC[C@H](O)/C=C/C=C\CCCCCCCC(=O)O [13(S)-HODE] | 792800 RLU | 37.62% | – | – |
| CC1(C)[C@@H]2C[C@H](NS(=O)(=O)c3ccc(I)cc3)[C@@H](C/C=C\CCCC(=O)O)[C@H]1C2 [I-SAP] | 245520 RLU | −2.97% | – | – |
| O=C(O)CCC/C=C\C/C=C\C/C=C\C/C=C\CCCCCC(=O)O [20-carboxy Arachidonic Acid] | 293760 RLU | −2.36% | – | – |
| CCCCC/C=C\C\C=C/C=C/C=C/[C@@H](O)[C@@H](O)CCCC(=O)O [5(S),6(R)-DiHETE] | 166040 RLU | 1.66% | – | – |
| D-myo-Inositol-1,2,3,4-tetraphosphate (sodium salt) | 447960 RLU | 9.28% | – | – |
| CC/C=C\CC(O)C(O)C/C=C\C/C=C\C/C=C\CCCC(=O)O (racemic) [(±)14(15)-DiHETE] | 356480 RLU | 2.37% | – | – |
| C[C@]12CCC(=O)C[C@@H]1CC[C@@H]1[C@@H]2CC[C@]2(C)[C@@H](OC(=O)c3ccccc3)CC[C@@H]12 [Androstanolone 17-benzoate] | – | – | 217200 RLU | 0.99% |
| [2H]C([2H])(/C=C\C[C@H]1[C@@H](O)CC(=O)O[C@@H]1/C=C/[C@@H](O)CCCCC)C([2H])([2H])CC(=O)O [11-dehydro Thromboxane B2-d4] | 366280 RLU | 3.11% | – | – |
| C[C@@H](O)CCC[C@H](O)/C=C/[C@H]1[C@H](O)CC(=O)[C@@H]1C/C=C\CCCC(=O)O [19(R)-hydroxy Prostaglandin E2] | 347280 RLU | 5.07% | – | – |
| O=C(O)CCCCC(=O)CC[C@H]1[C@H](O)CC(=O)[C@@H]1CCC(=O)O [tetranor-PGEM] | 348440 RLU | 5.17% | – | – |
| CCCCC/C=C\C=C\C(=O)CCCCCCCC(=O)O [9-OxoODE] | 359280 RLU | 5.39% | – | – |
| CC/C=C\C/C=C\C/C=C\CC(O)/C=C/C=C\CCCC(=O)O (racemic) [(±)9-HEPE] | 699960 RLU | 30.72% | – | – |
| CC/C=C\C[C@H](O)/C=C/[C@@H]1[C@H]2C/C(=C/CCCC(=O)[O-])O[C@H]2C[C@H]1O.[Na+] [Prostaglandin I3 (sodium salt)] | 333560 RLU | 3.99% | – | – |
| CC/C=C\C[C@@H](/C=C/C=C\CCCCCCCC(=O)O)OO [13(S)-HpOTrE] | 35320 RLU | −18.70% | – | – |
| CCCCCCCC[C@H](O)/C=C/C=C\C=C\[C@H](O)CCCC(=O)O [Leukotriene B3] | 2077280 RLU | 141.82% | – | – |
